Consider 17 molecules from publication PMC12073248, “Tyrosinase Inhibitors Among Flora of Lubelskie Region—Application of Bio-Chromatographic Approach and Zebrafish Model in Bioactivity Screening of Plant Material” (Molecules, 2025).

Usually IC50 stands for the concentration at which inhibition is half-maximal. Read a low IC50 as inhibition by little substance.

For the first assay, the target named is T1, mushroom tyrosinase (Agaricus bisporus, UniProt C7FF04). As to the kind of experiment: Bio-chromatographic assay: HPLC-ESI-QTOF-MS/MS of extract with and without tyrosinase. In kind it is binding. The settings on record: chemometric comparison, p < 0.001.
T1 sequence (C7FF04 1-392): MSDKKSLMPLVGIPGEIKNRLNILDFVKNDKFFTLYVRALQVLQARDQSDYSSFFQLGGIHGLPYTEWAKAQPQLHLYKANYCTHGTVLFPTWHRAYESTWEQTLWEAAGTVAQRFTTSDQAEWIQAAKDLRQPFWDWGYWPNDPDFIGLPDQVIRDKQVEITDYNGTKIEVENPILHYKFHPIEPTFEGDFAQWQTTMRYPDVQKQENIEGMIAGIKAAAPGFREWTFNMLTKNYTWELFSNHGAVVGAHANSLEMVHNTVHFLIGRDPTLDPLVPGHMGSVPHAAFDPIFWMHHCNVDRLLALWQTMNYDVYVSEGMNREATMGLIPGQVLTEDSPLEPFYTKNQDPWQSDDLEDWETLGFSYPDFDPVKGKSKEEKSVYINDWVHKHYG
`O=C(O)CC(OC(=O)/C=C/c1ccc(O)c(O)c1)C(=O)O` (centres unmarked) [caffeoylmalic acid, Caffeoylmalic acid]: the “Presence among m/z features differentiating extract before and after tyrosinase treatment” value was “present on the list of the differentiating molecular features”.

As for `O=C(/C=C/c1ccc(O)cc1)O[C@@H](C(=O)O)[C@@H](O)C(=O)O` [coumaroyl-tartaric acid, p-Coumaroyltartaric acid], the “Presence among m/z features differentiating extract before and after tyrosinase treatment” value is on record as “present on the list of the differentiating molecular features”. Same read-out and setting: then `O=C(O)[C@]1(O)C[C@@H](O)[C@@H](O)[C@H](O)C1` [quinic acid, Quinic acid], with “present on the list of the differentiating molecular features”. Turning to `COc1cc(/C=C/C(=O)O)cc(OC)c1O` [sinapic acid, Sinapic acid], the “Presence among m/z features differentiating extract before and after tyrosinase treatment” value is recorded as “present on the list of the differentiating molecular features”. The same measure, in the same setting: then Isopropylmalic acid, with “present on the list of the differentiating molecular features”; and Syringetin glucoside, with “visible in the list of differentiating signals”.

In another assay the target is T1, mushroom tyrosinase. Put plainly: Spectrophotometric tyrosinase inhibition assay with L-DOPA as substrate. In kind it is biochemical. The following applies: standards 0.015 to 5.0 mg/mL.
Protocol: The inhibitory properties of the extracts against tyrosinase were evaluated using in an in vitro assay with the mushroom tyrosinase enzyme and L-DOPA as a substrate (Sigma Aldrich, St. Louis, MO, USA). The assay was performed based on the method by Uchida and colleagues [43]. Briefly, 100 µL of 100 mM phosphate buffer (pH 6.8) and 20 µL of the diluted extracts of studied plants (1 mg/mL solution in DMSO) were pipetted into a 96 well microwell. Afterwards, 20 μL of the mushroom tyrosinase (500 U/mL) dissolved in phosphate buffer (pH 6.8) was added to each microwell and the mixture was pre-incubated for 10 min at room temperature. After incubation, 80 µL of 8 mM L-DOPA was added and the reaction was initiated and sustained at 25 °C. After 20 min, the absorbance was measured at 450 nm using a microplate reader Promega GloMax Explorer GM 3510 (Madison, MO, USA). The control sample (with 100% tyrosinase activity) contained the appropriate volume of the solvent (100 µL buffer plus 20 µL DMSO) instead of the extract. In both assays, the dopachrome formation was measured spectrophotometrically at λ = 450 nm, using a Promega microplate reader. The obtained values were corrected by the absorbance value of the background that was measured for the extracts without the mushroom tyrosinase and L-DOPA. Each sample was analyzed in three independent repetitions. […]
`COc1cc(/C=C/C(=O)O)ccc1O` [ferulic acid, Ferulic acid] yielded an IC50 of 484 nM.

A further assay addresses T1, mushroom tyrosinase. Put plainly: Bio-chromatographic assay: HPLC-ESI-QTOF-MS/MS of extract with and without tyrosinase. In kind it is binding. The following applies: aglycons in M. recutita extract; minute content, matrix effect. The protocol:
For the identification of single components responsible for interactions with tyrosinase enzymes, a bio-chromatographic assay was performed. For this purpose, two 0.5 mL portions of 1 mg/mL 50% EtOH extract of chamomile dissolved in water each were transferred to an Eppendorf vial of 2 mL. The sample coded as sample A was mixed with 0.5 mL of carbonate buffer prepared by dissolving 120 mg Na2CO3 and 12.5 mg NaHCO3 in 1000 mL of water and later diluted 40 times, whereas sample B was mixed with 0.5 mL of tyrosinase enzyme (500 U/mL) in the same carbonate buffer and diluted 40 times as sample A was.
Both samples A and B were filtered through nylon syringe filters (0.1 µm pore size) into autosampler vials and analyzed using an HPLC-ESI-QTOF-MS/MS instrument. The test was performed in triplicate. During the analysis of recorded data, the obtained chromatograms were subtracted from each other in the Mass Hunter Workstation Program to highlight the changes visible under the influence of the enzyme, and some of the potentially active components were tentatively identified thanks to high-resolution mass measurement, recorded MS/MS fragmentation patterns, and comparison with open mass databases (Metlin, HMDB, Mass Bank). Both injections—with and without the enzyme—were also compared using the Mass Profiler Professional Program (Agilent Technologies, Santa Clara, CA, USA). For this purpose, molecular feature extraction was carried out using the Profinder program v. 10.0.02 (Agilent Technologies, Santa Clara, CA, USA) to obtain a list of m/z values, retention times, and peak areas from the recorded injections, which were exported in profinder archive and detailed CSV formats for subsequent chemometric comparison. The data were filtered based on criteria including a mass tolerance of 10 ppm, retention time variation of 0.3 min, and a minimum peak area of 1% of the highest signal. The chemometric analysis performed directly within the program yielded 802 entities in positive ion mode and 715 in negative ion mode (p < 0.05), in a one-way ANOVA test with asymptotic p-value computation and Benjamini–Hochberg multiple testing correction.
Regarding `O=c1cc(-c2ccc(O)cc2)oc2cc(O)cc(O)c12` [apigenin, Apigenin], the “Inhibitory properties in the bio-chromatographic assay” value was “did not show inhibitory properties”. With `O=c1cc(-c2ccc(O)c(O)c2)oc2cc(O)cc(O)c12` [luteolin, Luteolin], the “Inhibitory properties in the bio-chromatographic assay” value is “did not show inhibitory properties”.

Staying with this assay, now noted: mass chromatograms with and without enzyme.
As to `O=c1c(O[C@@H]2OC[C@H](O)[C@H](O)[C@H]2O)c(-c2ccc(O)cc2)oc2cc(O)cc(O)c12` [kaempferol arabinoside, Kaempferol-3-O-alpha-L-arabinoside], the “Peak height after reaction with tyrosinase” value was “marked decrease in the peak height”. On the same count and under the same terms, the value for `O=C(O)CC(=O)OC[C@H]1O[C@@H](Oc2c(-c3ccc(O)cc3)oc3cc(O)cc(O)c3c2=O)[C@H](O)[C@@H](O)[C@@H]1O` [kaempferol malonylglucoside, Kaempferol 3-(6″-malonylglucoside)] was “marked decrease in the peak height”.

Staying with this assay, now noted: negative ion mode; negative peak = decrease in intensity on reaction with the enzyme.
For the molecule `O=C(O)CC(O)(CC(=O)O)C(=O)O` [citric acid, Citric acid], the “Peak in subtracted chromatogram (extract with enzyme minus extract)” value is listed as “Large negative peaks”. On the same count and under the same terms, then `O=C(O)[C@H](O)[C@@H](O)[C@H](O)[C@H](O)CO` [gluconic acid, Gluconic acid], with “Large negative peaks”; and `O=C(O)CC(O)C(=O)O` (centres unmarked) [malic acid, Malic acid], with “Large negative peaks”. The same measure, in the same setting: the value for Feruloyl hexose was “Large negative peaks”; that for Feruloyl-glucose isomers was “leading negative peak”; that for “Protocatechuoylglucose [protocatechuoyl-glucose]” was “visible negative peak”.
